Consider 21 compounds from patent EP4759807A1, “PROTEOLYSIS TARGETING CHIMERA COMPOUND FOR DEGRADING IRAK4 AND USE THEREOF” (Shenzhen Zhongge Biological Technology Co., Ltd., priority 2023, dated 2025).

Like-named read-outs stand apart in the source and are kept apart here. Bounds are passed on as bounds.

This experiment deals with T1, IRAK4 (Homo sapiens, UniProt Q9NWZ3).
T1 sequence (Q9NWZ3 1-460): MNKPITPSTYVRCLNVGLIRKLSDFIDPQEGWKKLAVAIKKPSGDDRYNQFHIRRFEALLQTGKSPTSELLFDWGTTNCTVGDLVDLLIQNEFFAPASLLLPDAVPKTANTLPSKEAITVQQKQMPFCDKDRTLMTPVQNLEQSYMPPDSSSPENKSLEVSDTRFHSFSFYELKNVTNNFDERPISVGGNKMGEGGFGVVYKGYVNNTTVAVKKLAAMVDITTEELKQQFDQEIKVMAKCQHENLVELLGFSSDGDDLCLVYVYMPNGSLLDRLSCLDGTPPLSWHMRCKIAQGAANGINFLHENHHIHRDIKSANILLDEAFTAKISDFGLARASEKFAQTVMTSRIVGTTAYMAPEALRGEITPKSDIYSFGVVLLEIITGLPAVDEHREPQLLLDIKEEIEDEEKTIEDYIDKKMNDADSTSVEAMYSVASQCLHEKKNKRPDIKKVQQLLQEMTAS
In words: Hibit fluorescence detection of proteolysis (IRAK4-HiBiT in HEK293T cells). The experiment is classed as cell-based. Also on record: host or cells: HEK293T (ATCC). The conditions noted are these: for Dmax: HEK-293T. Put shortly: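 Degradation read-out: luminescence from lytic HiBiT detection (15 min, room temperature) after 24 h compound exposure (37 °C, 5% CO2) of HEK293T cells transiently expressing IRAK4 fused to a HiBiT tag. Data fitted to a bell-shaped four-parameter model giving two EC50 values.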

[1] abbreviates: IRAK4-HiBiT, HEK293T cells, 24 h.
Setting [2] is: IRAK4-HiBiT, HEK293T cells, 24 h, read-out: Dmax.
The mark [3] stands for this setting: IRAK4-HiBiT, HEK293T cells, 24 h, read-out: DC50.

With `CN(C[C@H]1CC[C@H](n2cc(-n3cc(-c4cnn5ccc(N6CCOCC6)nc45)nn3)c(C(F)F)n2)CC1)C1CCC(Nc2cccc3c2n(C)c(=O)n3C2CCC(=O)NC2=O)CC1` (stereo partly drawn) [Example 20, 3-(4-((4-((((1r,4r)-4-(3-(difluoromethyl)-4-(4-(5-morpholinopyrazolo[1,5-a]pyrimidin-3-yl)-1H-1,2,3-triazol-1-yl)-1H-pyrazol-1-yl)cyclohexyl)methyl)(methyl)amino)cyclohexyl)amino)-3-methyl-2-oxo-2,3-dihydro-1H-benzo[d]imidazol-1-yl)piperidine-2,6-dione], the Dmax was greater than 80%. Further, the DC50 under setting [1] is less than 0.5 nM.

`Cn1c(=O)n(C2CCC(=O)NC2=O)c2cccc(CN3CCC4(CC3)CC(NC[C@H]3CC[C@H](n5cc(-n6cc(-c7cnn8ccc(N9CCOCC9)nc78)nn6)c(C(F)F)n5)CC3)C4)c21` (stereo partly drawn) [Example 4] gave a Dmax greater than 80%. Further, the DC50 under setting [1] is less than 0.5 nM.

Compound `Cn1c(=O)n(C2CCC(=O)NC2=O)c2cccc(N3CCN(C4CCN(C[C@H]5CC[C@H](n6cc(-n7cc(-n8ccc9cc(C(N)=O)cnc98)nn7)c(C(F)F)n6)CC5)CC4)CC3)c21` (stereo partly drawn) [Example 104, 1-(1-(3-(difluoromethyl)-1-((1r,4r)-4-((4-(4-(1-(2,6-dioxopiperidin-3-yl)-3-methyl-2-oxo-2,3-dihydro-1H-benzo[d]imidazol-4-yl)piperazin-1-yl)piperidin-1-yl)methyl)cyclohexyl)-1H-pyrazol-4-yl)-1H-1,2,3-triazol-4-yl)-1H-pyrrolo[2,3-b]pyridine-5-carboxamide] gave a Dmax greater than 80%. The DC50 under setting [1] is less than 0.5 nM.

Take `Cn1c(=O)n(C2CCC(=O)NC2=O)c2cccc(N3CCC(CN4CCC(n5cc(-n6cc(-c7ccc8cc(C(N)=O)cnn78)nn6)c(C(F)F)n5)CC4)CC3)c21` (stereo not drawn) [Example 74, 7-(1-(3-(difluoromethyl)-1-(1-((1-(1-(2,6-dioxopiperidin-3-yl)-3-methyl-2-oxo-2,3-dihydro-1H-benzo[d]imidazol-4-yl)piperidin-4-yl)methyl)piperidin-4-yl)-1H-pyrazol-4-yl)-1H-1,2,3-triazol-4-yl)pyrrolo[1,2-b]pyridazine-3-carboxamide]: the Dmax under setting [2] was in the range of 70 to 80%. The DC50 under setting [3] is less than 0.5 nM.

Regarding `Cn1c(=O)n(C2CCC(=O)NC2=O)c2cccc(N3CCOC4(CCN(C[C@H]5CC[C@H](n6cc(-n7cc(-c8cnn9ccc(N%10CCOCC%10)nc89)nn7)c(C(F)F)n6)CC5)CC4)C3)c21` (stereo partly drawn) [Example 38], the Dmax is less than 60%. The compound also yielded a DC50 under setting [1] of less than 0.5 nM.

Take `NC(=O)c1cnn2c(-c3cn(-c4cn([C@H]5CC[C@H](CN6CCN(c7ccc8c(c7)C(=O)N(C7CCC(=O)NC7=O)C8=O)CC6)CC5)nc4C(F)F)nn3)ccc2c1` (stereo partly drawn) [Example 70, 7-(1-(3-(difluoromethyl)-1-((1r,4r)-4-(4-(2-(2,6-dioxopiperidin-3-yl)-1,3-dioxoisoindolin-5-yl)piperazin-1-yl)methyl)cyclohexyl-1H-pyrazol-4-yl)-1H-1,2,3-triazol-4-yl)pyrrolo[1,2-b]pyridazine-3-carboxamide]: the Dmax fell in the range of 70 to 80%. Under setting [1], the DC50 is 1 to 5 nM.

For `NC(=O)c1cnn2c(-c3cn(-c4cn(C5CCN(CCN6CCN(c7ccc8c(c7)C(=O)N(C7CCC(=O)NC7=O)C8=O)CC6)CC5)nc4C(F)F)nn3)ccc2c1` (stereo not drawn) [Example 93], the Dmax is 70 to 80%. Under setting [1], this compound had a DC50 of 1 to 5 nM.

Consider `Cn1c(=O)n(C2CCC(=O)NC2=O)c2cccc(C3CN(C4CCN(C[C@H]5CC[C@H](n6cc(-n7cc(-c8ccc9cc(C(N)=O)cnn89)nn7)c(C(F)F)n6)CC5)CC4)C3)c21` (stereo partly drawn) [Example 82], for which the Dmax is greater than 80%. Further, the DC50 under setting [1] is less than 0.5 nM.

With `Cn1c(=O)n(C2CCC(=O)NC2=O)c2cccc(NC(=O)C3CCN(C[C@H]4CC[C@H](n5cc(-n6cc(-c7ccc8cc(C(N)=O)cnn78)nn6)c(C(F)F)n5)CC4)CC3)c21` (stereo partly drawn) [Example 69, 7-(1-(3-(difluoromethyl)-1-((1r,4r)-4-((4-((1-(2,6-dioxopiperidin-3-yl)-3-methyl-2-oxo-2,3-dihydro-1H-benzo[d]imidazol-4-yl)carbamoyl)piperidin-1-yl)methyl)cyclohexyl)-1H-pyrazol-4-yl)-1H-1,2,3-triazol-4-yl)pyrrolo[1,2-b]pyridazine-3-carboxamide], the Dmax was greater than 80%. This compound registered a DC50 under setting [1] greater than 5 nM.

Turning to `Cn1c(=O)n(C2CCC(=O)NC2=O)c2cccc(N3C4CCC3CN(C[C@H]3CC[C@H](n5cc(-n6cc(-c7ccc8cc(C(N)=O)cnn78)nn6)c(C(F)F)n5)CC3)C4)c21` (stereo partly drawn) [Example 92, 7-(1-(3-(difluoromethyl)-1-((1r,4r)-4-(8-(1-(2,6-dioxopiperidin-3-yl)-3-methyl-2-oxo-2,3-dihydro-1H-benzo[d]imidazol-4-yl)-3,8-diazabicyclo[3.2.1]oct-3-yl)methyl)cyclohexyl-1H-pyrazol-4-yl)-1H-1,2,3-triazol-4-yl)pyrrolo[1,2-b]pyridazine-3-carboxamide], the Dmax was greater than 80%. Further, the DC50 under setting [1] was 1 to 5 nM.

Take `NC(=O)c1cnn2c(-c3cn(-c4cn(C5CCN(CC6CCC7(CC6)CCN(C(=O)c6ccc(Cl)c(N8CCC(=O)NC8=O)c6)CC7)CC5)nc4C(F)F)nn3)ccc2c1` [Example 77]: the Dmax was 70 to 80%. Under setting [1], this compound showed a DC50 of 0.5 to 1 nM.

Take `Cn1c(=O)n(C2CCC(=O)NC2=O)c2cccc(CCC(=O)N3CCC4(CC3)CN(C[C@H]3CC[C@H](n5cc(-n6cc(-c7cnn8ccc(N9CCOCC9)nc78)nn6)c(C(F)F)n5)CC3)C4)c21` (stereo partly drawn) [Example 16]: the Dmax was in the range of 60 to 70%. This compound had a DC50 under setting [1] of less than 0.5 nM.

The compound `Cn1c(=O)n(C2CCC(=O)NC2=O)c2cccc(N3CC4(CCN(C[C@H]5CC[C@H](n6cc(-n7cc(-c8cnn9ccc(N%10CCOCC%10)nc89)nn7)c(C(F)F)n6)CC5)CC4)C3)c21` (stereo partly drawn) [Example 43, 3-(4-(7-(((1r,4r)-4-(3-(difluoromethyl)-4-(4-(5-morpholinopyrazolo[1,5-a]pyrimidin-3-yl)-1H-1,2,3-triazol-1-yl)-1H-pyrazol-1-yl)cyclohexyl)methyl)-2,7-diazaspiro[3.5]nonan-2-yl)-3-methyl-2-oxo-2,3-dihydro-1H-benzo[d]imidazol-1-yl)piperidine-2,6-dione] gave a Dmax greater than 80%. The DC50 under setting [1] was less than 0.5 nM.

In turn, `Cn1c(=O)n(C2CCC(=O)NC2=O)c2cccc(N3CCN(C4CN(C[C@H]5CC[C@H](n6cc(-n7cc(-c8cnn9ccc(N%10CCOCC%10)nc89)nn7)c(C(F)F)n6)CC5)C4)CC3)c21` (stereo partly drawn) [Example 44] returned a Dmax greater than 80%. Besides, the DC50 under setting [1] was less than 0.5 nM.

Compound `O=C1CCC(NC(=O)c2ccc(N3CCN(C[C@H]4CC[C@H](n5cc(-n6cc(-c7cnn8ccc(N9CCOCC9)nc78)nn6)c(C(F)F)n5)CC4)CC3)cc2F)C(=O)N1` (stereo partly drawn) [Example 28] had a Dmax of 60 to 70%. Under setting [1], this compound had a DC50 greater than 5 nM.

`Cn1c(=O)n(C2CCC(=O)NC2=O)c2cccc(N3CC4CN(C[C@H]5CC[C@H](n6cc(-n7cc(-c8ccc9cc(C(N)=O)cnn89)nn7)c(C(F)F)n6)CC5)CC4C3)c21` (stereo partly drawn) [Example 81]: the Dmax was greater than 80%. The DC50 under setting [1] was less than 0.5 nM.

Turning to `Cn1c(=O)n(C2CCC(=O)NC2=O)c2cccc(N3CCN(C[C@H]4CC[C@H](n5cc(-n6cc(-c7cnn8ccc(N[C@@H]9CCCC[C@@H]9O)nc78)nn6)c(C(F)F)n5)CC4)CC3)c21` (stereo partly drawn) [Example 268], the Dmax was in the range of 70 to 80%. Besides, under setting [1], the DC50 fell in the range of 0.5 to 1 nM.

As for `C[C@H]1CN(c2ccn3ncc(-c4cn(-c5cn([C@H]6CC[C@H](CN7CC8(CCN(c9cccc%10c9n(C)c(=O)n%10C9CCC(=O)NC9=O)CC8)C7)CC6)nc5C(F)F)nn4)c3n2)CCO1` (stereo partly drawn) [Compound 212], the Dmax is greater than 80%. Moreover, under setting [3], the DC50 was less than 0.5 nM.

Take `NC(=O)c1cnn2c(-c3cn(-c4cn([C@H]5CC[C@H](CN6CC7(CC(CCNc8cccc9c8C(=O)N(C8CCC(=O)NC8=O)C9=O)C7)C6)CC5)nc4C(F)F)nn3)ccc2c1` (stereo partly drawn) [Example 76, 7-(1-(3-(difluoromethyl)-1-((1r,4r)-4-((6-(2-((2-(2,6-dioxopiperidin-3-yl)-1,3-dioxoisoindolin-4-yl)amino)ethyl)-2-azaspiro[3.3]hept-2-yl)methyl)cyclohexyl)-1H-pyrazol-4-yl)-1H-1,2,3-triazol-4-yl)pyrrolo[1,2-b]pyridazine-3-carboxamide]: the Dmax was less than 60%. Also, under setting [1], the DC50 was less than 0.5 nM.

In the case of `Cc1c(/C=C2\C(=O)Nc3ccc(S(=O)(=O)Nc4ccc(F)cc4)cc32)[nH]c2cc(N3CCN(CC4CCN(c5ccc(C(=O)NC6CCC(=O)NC6=O)c(F)c5)CC4)CC3)ccc12` (stereo not drawn) [Example 22, N-(2,6-dioxopiperidin-3-yl)-2-fluoro-4-(4-{[4-(2-{[(3Z)-5-[(4-fluorophenyl)sulfamoyl]-2-oxo-2,3-dihydro-1H-indol-3-ylidene]methyl}-3-methyl-1H-indol-6-yl)piperazin-1-yl]methyl}piperidin-1-yl)benzamide], under setting [2], the Dmax is less than 60%. Moreover, the DC50 under setting [3] was greater than 5 nM.

In turn, `Cn1c(=O)n(C2CCC(=O)NC2=O)c2cccc(N3CCN(C4CCN(C[C@H]5CC[C@H](n6cc(-n7cc(-c8cnn9ccc(NCCC(C)(C)O)nc89)nn7)c(C(F)F)n6)CC5)CC4)CC3)c21` (stereo partly drawn) [Example 133] returned a Dmax greater than 80%. Under setting [1], this compound displayed a DC50 of less than 0.5 nM.
